Assay results as given in patent US10611740B2, “Aryl dihydro-2H-benzo[b][1,4]oxazine sulfonamide and related compounds for use as agonists of RORγ and the treatment of disease” (Lycera Corporation, priority 2015, dated 2020).

Target: T1, RORγ-LBD (Homo sapiens, UniProt P51449)
T1 construct: made in house; host or cells: SF9 cells (baculovirus)
T1 sequence (P51449 269-508 limits assumed): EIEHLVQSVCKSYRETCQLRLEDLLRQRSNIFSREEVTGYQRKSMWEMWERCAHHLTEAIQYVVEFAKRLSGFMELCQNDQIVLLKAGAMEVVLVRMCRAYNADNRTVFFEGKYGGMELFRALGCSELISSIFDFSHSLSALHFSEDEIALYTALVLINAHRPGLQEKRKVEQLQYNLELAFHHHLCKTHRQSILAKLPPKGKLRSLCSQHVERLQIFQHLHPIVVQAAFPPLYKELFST
Experiment: RORγ-Ligand Binding Domain (LBD) TR-FRET Assay;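 for TR-FRET Assay Max Response: 665/615 nm ratio relative to signal without ursolic acid or compound set at 100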
Type: biochemical
Description: Assay procedures and results are described below.
HIS-tagged RORγ-LBD protein was expressed in SF9 cells using a baculovirus expression system. The lysate was diluted in assay buffer (50 mM Tris pH 7.0, 50 mM KCl, 1 mM EDTA, 0.1 mM DTT, 0.01% BSA) to obtain RORγ-LBD final concentration of ˜3 nM in a 384-well assay plate (need to titrate for each batch of protein).
A stock of biotinylated-LXXLL peptide from coactivator SRC1 (Biotin-[…]) was prepared in assay buffer and added to each well (200 nM final concentration). […] RORγ antagonist ursolic acid was also included at a final concentration of 2 μM. Compounds were diluted in DMSO and further diluted in assay buffer with a final DMSO concentration at 1%.

Row | Compound | EC50 [nM] | TR-FRET Assay Max Response
1 | C[C@@H](C[C@H]1CN(S(=O)(=O)c2cccc(C(F)(F)F)c2)c2cc(-c3cc(Cl)cc(OC(F)F)c3)ccc2O1)C(=O)O [Compound 46R, (S)-3-((S)-6-(3-chloro-5-(difluoromethoxy)phenyl)-4-((3-(trifluoromethyl)phenyl)sulfonyl)-3,4-dihydro-2H-benzo[b][1,4]-oxazin-2-yl)-2-methylpropanoic acid] | < 500 | *** (The symbol “***” indicates a value in the range of greater than 150 to 200)
2 | C[C@@H](C[C@H]1CN(S(=O)(=O)c2cccc(C(F)(F)F)c2)c2cc(-c3cc(F)cc(F)c3)ccc2O1)C(=O)O [Compound 46S, (S)-3-((S)-6-(3,5-difluorophenyl)-4-((3-(trifluoromethyl)phenyl)-sulfonyl)-3,4-dihydro-2H-benzo[b][1,4]oxazin-2-yl)-2-methylpropanoic acid] | < 500 | *** (The symbol “***” indicates a value in the range of greater than 150 to 200)
3 | C[C@@H](C[C@H]1CN(S(=O)(=O)c2cccc(C(F)(F)F)c2)c2cc(-c3cccc(C(F)(F)F)n3)ccc2O1)C(=O)O [Compound 46T, (S)-2-methyl-3-((S)-4-((3-(trifluoromethyl)phenyl)sulfonyl)-6-(6-(trifluoromethyl)pyridin-2-yl)-3,4-dihydro-2H-benzo[b][1,4]-oxazin-2-yl)propanoic acid] | < 500 | *** (The symbol “***” indicates a value in the range of greater than 150 to 200)
4 | C[C@H](C[C@H]1CN(S(=O)(=O)c2cccc(C(F)(F)F)c2)c2cc(-c3cccc(C(F)(F)F)n3)ccc2O1)C(=O)O [Compound 46U, (R)-2-methyl-3-((S)-4-((3-(trifluoromethyl)phenyl)sulfonyl)-6-(6-(trifluoromethyl)pyridin-2-yl)-3,4-dihydro-2H-benzo[b][1,4]-oxazin-2-yl)propanoic acid] | < 500 | *** (The symbol “***” indicates a value in the range of greater than 150 to 200)
5 | O=C(O)C1(C[C@H]2CN(S(=O)(=O)c3cccc(C(F)(F)F)c3)c3cc(-c4cccc(C(F)(F)F)n4)ccc3O2)COC1 [Compound 51D, (S)-3-((4-((3-(trifluoromethyl)-phenyl)sulfonyl)-6-(6-(trifluoro-methyl)pyridin-2-yl)-3,4-dihydro-2H-benzo[b][1,4]oxazin-2-yl)methyl)oxetane-3-carboxylic acid] | < 500 | *** (The symbol “***” indicates a value in the range of greater than 150 to 200)
6 | O=C(O)C1(C[C@H]2CN(S(=O)(=O)c3cccc(C(F)(F)F)c3)c3cc(-c4cc(F)ccc4F)ccc3O2)CCOCC1 [Compound 57, (S)-4-((6-(2,5-difluorophenyl)-4-((3-(trifluoromethyl)phenyl)sulfonyl)-3,4-dihydro-2H-benzo[b][1,4]oxazin-2-yl)methyl)tetrahydro-2H-pyran-4-carboxylic acid] | < 500 | *** (The symbol “***” indicates a value in the range of greater than 150 to 200)
7 | O=C(O)[C@H]1C[C@@H]([C@H]2CN(S(=O)(=O)c3cccc(C(F)(F)F)c3)c3cc(-c4cc(F)ccc4F)ccc3O2)C1 [Compound 60H, (1R,3s)-3-((S)-6-(2,5-difluoro-phenyl)-4-((3-(trifluoromethyl)-phenyl)sulfonyl)-3,4-dihydro-2H-benzo[b][1,4]oxazin-2-yl)cyclobutane-1-carboxylic acid] | < 500 | ** (The symbol “**” indicates a value in the range of greater than 90 to 150)
8 | O=C(O)[C@H]1C[C@H]([C@H]2CN(S(=O)(=O)c3cccc(C(F)(F)F)c3)c3cc(-c4cc(F)ccc4F)ccc3O2)C1 [Compound 60I, (1S,3r)-3-((S)-6-(2,5-difluoro-phenyl)-4-((3-(trifluoromethyl)-phenyl)sulfonyl)-3,4-dihydro-2H-benzo[b][1,4]oxazin-2-yl)cyclobutane-1-carboxylic acid] | < 500 | ** (The symbol “**” indicates a value in the range of greater than 90 to 150)
9 | O=C(O)[C@H]1C[C@@H]([C@H]2CN(S(=O)(=O)c3cccc(C(F)(F)F)c3)c3cc(-c4cc(F)cc(OC(F)F)c4)ccc3O2)C1 [Compound 60J, (1R,3s)-3-((S)-6-(3-(difluoro-methoxy)-5-fluorophenyl)-4-((3-(trifluoromethyl)phenyl)-sulfonyl)-3,4-dihydro-2H-benzo[b][1,4]-oxazin-2-yl)cyclobutane-1-carboxylic acid] | < 500 | *** (The symbol “***” indicates a value in the range of greater than 150 to 200)
10 | O=C(O)[C@H]1C[C@H]([C@H]2CN(S(=O)(=O)c3cccc(C(F)(F)F)c3)c3cc(-c4cc(F)cc(OC(F)F)c4)ccc3O2)C1 [Compound 60K, (1S,3r)-3-((S)-6-(3-(difluoro-methoxy)-5-fluorophenyl)-4-((3-(trifluoromethyl)phenyl)-sulfonyl)-3,4-dihydro-2H-benzo[b][1,4]oxazin-2-yl)cyclobutane-1-carboxylic acid] | < 500 | ** (The symbol “**” indicates a value in the range of greater than 90 to 150)
11 | O=C(O)[C@H]1C[C@@H]([C@H]2CN(S(=O)(=O)c3cccc(C(F)(F)F)c3)c3cc(-c4cccc(C(F)(F)F)n4)ccc3O2)C1 [Compound 71, (1R,3s)-3-((S)-4-((3-(trifluoromethyl)phenyl)sulfonyl)-6-(6-(trifluoromethyl)pyridin-2-yl)-3,4-dihydro-2H-benzo[b][1,4]oxazin-2-yl)cyclobutane-1-carboxylic acid] | < 500 | *** (The symbol “***” indicates a value in the range of greater than 150 to 200)
12 | O=C(O)[C@H]1C[C@H]([C@H]2CN(S(=O)(=O)c3cccc(C(F)(F)F)c3)c3cc(-c4cccc(C(F)(F)F)n4)ccc3O2)C1 [Compound 72, (1S,3r)-3-((S)-4-((3-(trifluoromethyl)phenyl)sulfonyl)-6-(6-(trifluoromethyl)pyridin-2-yl)-3,4-dihydro-2H-benzo[b][1,4]oxazin-2-yl)cyclobutane-1-carboxylic acid] | < 500 | ** (The symbol “**” indicates a value in the range of greater than 90 to 150)
13 | O=C1CC[C@@](C[C@H]2CN(S(=O)(=O)c3cccc(C(F)(F)F)c3)c3cc(-c4cc(F)cc(OC(F)F)c4)ccc3O2)(C(=O)O)N1 [Compound 77C, (R)-2-(((S)-6-(3-(difluoro-methoxy)-5-fluorophenyl)-4-((3-(trifluoromethyl)phenyl)sulfonyl)-3,4-dihydro-2H-benzo[b][1,4]-oxazin-2-yl)methyl)-5-oxopyrrolidine-2-carboxylic acid] | < 500 | ** (The symbol “**” indicates a value in the range of greater than 90 to 150)
14 | O=C1CC[C@](C[C@H]2CN(S(=O)(=O)c3cccc(C(F)(F)F)c3)c3cc(-c4cc(F)cc(OC(F)F)c4)ccc3O2)(C(=O)O)N1 [Compound 77D, (S)-2-(((S)-6-(3-(difluoro-methoxy)-5-fluorophenyl)-4-((3-(trifluoromethyl)phenyl)sulfonyl)-3,4-dihydro-2H-benzo[b][1,4]-oxazin-2-yl)methyl)-5-oxopyrrolidine-2-carboxylic acid] | < 500 | ** (The symbol “**” indicates a value in the range of greater than 90 to 150)
